Reference: patent US12247004B2, “2-amino-N-(amino-oxo-aryl-lambda6-sulfanylidene)acetamide compounds and their therapeutic use” (Oxford Drug Design Limited, priority 2019, dated 2025)
≈ marks a conversion by molar mass, not a printed value. Counter-ions that a name gives are not always drawn. Like-named read-outs stand apart in the source and are kept apart here.

How the values were obtained:
[1] = molecular target: Leucyl-tRNA synthetase (LeuRS) (Escherichia coli (strain K12), UniProt P07813); assay: Leucyl-tRNA synthetase enzyme inhibition (AMP-Glo; single point % inhibition at 100 μM and IC50); format: biochemical
Sequence of Leucyl-tRNA synthetase (LeuRS) (P07813 whole entry, looked up): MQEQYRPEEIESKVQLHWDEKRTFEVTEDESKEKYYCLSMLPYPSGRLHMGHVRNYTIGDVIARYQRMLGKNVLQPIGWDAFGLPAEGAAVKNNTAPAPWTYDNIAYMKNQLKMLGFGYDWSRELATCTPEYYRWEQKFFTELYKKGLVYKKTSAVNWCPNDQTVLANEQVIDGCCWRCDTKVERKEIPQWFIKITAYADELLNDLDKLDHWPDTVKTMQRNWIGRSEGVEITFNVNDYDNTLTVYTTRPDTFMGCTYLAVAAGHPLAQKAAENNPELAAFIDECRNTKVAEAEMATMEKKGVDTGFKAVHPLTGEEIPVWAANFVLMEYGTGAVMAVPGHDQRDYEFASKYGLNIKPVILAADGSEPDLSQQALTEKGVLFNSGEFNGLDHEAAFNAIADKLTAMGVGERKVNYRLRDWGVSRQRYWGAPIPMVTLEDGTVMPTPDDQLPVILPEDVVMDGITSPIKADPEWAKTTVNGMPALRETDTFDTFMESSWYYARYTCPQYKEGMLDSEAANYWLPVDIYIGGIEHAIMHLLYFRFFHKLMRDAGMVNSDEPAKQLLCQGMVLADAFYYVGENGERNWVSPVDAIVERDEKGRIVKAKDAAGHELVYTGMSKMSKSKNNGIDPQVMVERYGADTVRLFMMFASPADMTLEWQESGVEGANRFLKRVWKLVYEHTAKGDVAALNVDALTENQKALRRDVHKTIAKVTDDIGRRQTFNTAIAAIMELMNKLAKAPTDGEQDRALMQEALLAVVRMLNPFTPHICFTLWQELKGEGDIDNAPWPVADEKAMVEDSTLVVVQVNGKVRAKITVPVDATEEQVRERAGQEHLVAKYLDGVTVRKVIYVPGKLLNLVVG
Excerpt: Study 1—Enzyme Inhibition
The aminoacylation reaction catalyzed by aminoacyl-tRNA synthetases (aaRS) takes place in two steps. In the first step, aaRS activates its cognate amino acid with ATP; and in the second step the activated amino acid is loaded to its corresponding tRNA. This reaction can be summarized as follows: aaRS+aa+ATP=aaRS-aa-AMP+PPi aaRS-aa-AMP+tRNA=aa-tRNA+AMP+aaRS
wherein: aaRS, aminoacyl-tRNA synthetase; aa, amino acid; aaRS-aa-AMP, enzyme-bound to aminoacyl-adenylate; AMP, adenosine monophosphate; aa-tRNA, aminoacyl-tRNA, PPi, inorganic pyrophosphate.
a. Single Point Percentage Inhibition
The activity of the pathogenic aaRSs was monitored by measuring AMP production using the commercial kit AMP-Glo (Promega, Madison, USA).
Ligand stock solutions were prepared in 100% DMSO at 10 mM concentration. An assay buffer consisting of 100 mM Tris HCl pH 7.6, 40 mM MgCl, 20 mM KCl and 150 mM NaCl was prepared in dH2O.
Using the same enzymatic assay in a 384-well plate format, ten point concentration response curves were generated for each compound using a top concentration of 10 μM. The known inhibitor LeuAMS was used as a positive control for the LeuRS assay. 100% DMSO was used as a negative control. The IC50 was calculated based on non-linear regression analysis.

[2] = tested on: bacteria (ATCC reference strains); assay: Antibacterial activity, MIC by broth micro-dilution (CLSI)
[3] = Escherichia coli, ATCC25922, read-out: Antibacterial Activity (MIC), A = E. coli ATCC 25922
[4] = Escherichia coli, BAA2469, read-out: Antibacterial Activity (MIC), G = E. coli BAA-2469
[5] = E. coli LeuRS, read-out: Enzyme Inhibition - IC50, E. coli LeuRS
[6] = Klebsiella pneumoniae, ATCC700603, read-out: Antibacterial Activity (MIC), C = K. pneumoniae ATCC 700603
[7] = Haemophilus influenzae, ATCC49247, read-out: Antibacterial Activity (MIC), F = H. influenzae ATCC 49247

SMILES | IC50 [1] | IC50 [1, 5] | further results
CC(=O)c1sccc1[S@@](N)(=O)=NC(=O)[C@@H](N)CC(C)C (single isomer, unassigned) [ANASIA-112-1] | 0.294 µM |  | MIC [2, 3]: 32 µg/mL (≈ 101 µM); MIC [2, 4]: 64 µg/mL (≈ 202 µM)
CC(C)C[C@H](N)C(=O)N=S(N)(=O)c1csc(F)c1 (stereo partly shown) [ANASIA-060] |  | 0.227 µM | MIC [2, 4]: 16 µg/mL (≈ 54.5 µM); MIC [2, 6]: 32 µg/mL (≈ 109 µM)
CC(C)C[C@H](N)C(=O)N=[S@](N)(=O)c1cc(F)cs1 [ANASIA-062-1] | 0.0475 µM |  | MIC [2, 4]: 8 µg/mL (≈ 27.3 µM); MIC [2, 6]: 32 µg/mL (≈ 109 µM)
CC(C)C[C@H](N)C(=O)N=S(N)(=O)c1cc(F)c(F)s1 (stereo partly shown) [ANASIA-063] |  | 0.223 µM | MIC [2, 4]: 64 µg/mL (≈ 206 µM); MIC [2, 6]: > 256 µg/mL
CCOc1cccc(S(N)(=O)=NC(=O)[C@@H](N)CC(C)C)c1 (stereo partly shown) [ANASIA-066] |  | 0.553 µM | MIC [2, 3]: 64 µg/mL (≈ 204 µM); MIC [2, 4]: > 64 µg/mL
CC(C)C[C@H](N)C(=O)N=S(N)(=O)c1sccc1-c1ccccc1 (stereo partly shown) [ANASIA-068] |  | 0.141 µM | MIC [2, 3]: 32 µg/mL (≈ 91 µM); MIC [2, 4]: > 64 µg/mL
CC(C)C[C@H](N)C(=O)N=S(N)(=O)c1sccc1F (stereo partly shown) [ANASIA-070] |  | 0.143 µM | MIC [2, 4]: 32 µg/mL (≈ 109 µM); MIC [2, 6]: 64 µg/mL (≈ 218 µM)
CC(C)C[C@H](N)C(=O)N=S(N)(=O)c1ccc(F)s1 (stereo partly shown) [ANASIA-071] |  | 0.173 µM | MIC [2, 4]: 8 µg/mL (≈ 27.3 µM); MIC [2, 6]: 32 µg/mL (≈ 109 µM)
CC(C)C[C@H](N)C(=O)N=S(N)(=O)c1ccsc1F (stereo partly shown) [ANASIA-074] |  | 0.0992 µM | MIC [2, 4]: 16 µg/mL (≈ 54.5 µM); MIC [2, 6]: 32 µg/mL (≈ 109 µM)
CC(C)C[C@H](N)C(=O)N=[S@](N)(=O)c1ccccn1.Cl [ANASIA-075-1] | 0.42 µM |  | MIC [2, 3]: 32 µg/mL; MIC [2, 7]: > 64 µg/mL
CC(C)C[C@H](N)C(=O)N=S(N)(=O)c1sc(Cl)nc1Cl (stereo partly shown) [ANASIA-076] |  | 2.26 µM | 
CC(C)C[C@H](N)C(=O)N=[S@@](N)(=O)c1scc(Cl)c1Cl [ANASIA-081-2] |  | 0.488 µM | 
CC(C)C[C@H](N)C(=O)N=S(N)(=O)c1cc2sccc2s1 (stereo partly shown) [ANASIA-082] |  | 0.449 µM | 
CC(C)C[C@H](N)C(=O)N=[S@](N)(=O)c1csc2ccccc12 [ANASIA-083-1] |  | 0.157 µM | MIC [2, 3]: 32 µg/mL (≈ 98.3 µM); MIC [2, 7]: 32 µg/mL (≈ 98.3 µM)
CC(C)C[C@H](N)C(=O)N=[S@@](N)(=O)c1csc2ccccc12 [ANASIA-083-2] |  | 2.3 µM | 
C=CCc1cccc(S(N)(=O)=NC(=O)[C@@H](N)CC(C)C)c1 (stereo partly drawn) [ANASIA-085, (2S)—N-((3-allylphenyl)(amino)(oxo)-λ6-sulfanylidene)-2-amino-4-methylpentanamide hydrochloride] |  | 0.594 µM | 
Cc1ccccc1[S@@](N)(=O)=NC(=O)[C@@H](N)CC(C)C [ANASIA-086-1] | 3.33 µM |  | 
CC(C)C[C@H](N)C(=O)N=[S@](N)(=O)c1ccccc1F [ANASIA-087-2] |  | 4.92 µM | 
CC(C)C[C@H](N)C(=O)N=[S@@](N)(=O)c1cccc(OC(F)F)c1 [ANASIA-088-2] |  | 1.56 µM | 
CC(C)C[C@H](N)C(=O)N=[S@](N)(=O)c1cccc(C(F)(F)F)c1.Cl [ANASIA-089-1] | 0.195 µM |  | MIC [2, 3]: 64 µg/mL; MIC [2, 7]: 64 µg/mL
CC(C)C[C@H](N)C(=O)N=[S@@](N)(=O)c1cccc(C(F)(F)F)c1 [ANASIA-089-2] | 2.39 µM |  | 

SMILES | IC50 [1] | IC50 [1, 5] | further results
CC(C)C[C@H](N)C(=O)N=S(N)(=O)c1cccc(OC(F)(F)F)c1 (stereo partly shown) [ANASIA-090] |  | 0.199 µM | 
Cc1sccc1[S@@](N)(=O)=NC(=O)[C@@H](N)CC(C)C.Cl [ANASIA-091-1] | 0.847 µM |  | MIC [2, 3]: 64 µg/mL; MIC [2, 4]: > 64 µg/mL
Cc1sccc1[S@](N)(=O)=NC(=O)[C@@H](N)CC(C)C [ANASIA-091-2] |  | 8.15 µM | 
CC(C)C[C@H](N)C(=O)N=[S@@](N)(=O)c1ccsc1Cl [ANASIA-092-2] |  | 1.97 µM | 
CC(C)C[C@H](N)C(=O)N=S(N)(=O)c1ccsc1C(N)=O (stereo partly drawn) [ANASIA-093, 3-(N′-(L-leucyl)sulfamidimidoyl)thiophene-2-carboxamide hydrochloride] |  | 1.33 µM | 
Cc1cscc1[S@@](N)(=O)=NC(=O)[C@@H](N)CC(C)C.Cl [ANASIA-094-1] | 0.476 µM |  | MIC [2, 3]: 8 µg/mL; MIC [2, 4]: 64 µg/mL; MIC [2, 6]: 128 µg/mL
Cc1csc([S@](N)(=O)=NC(=O)[C@@H](N)CC(C)C)c1 [ANASIA-095-2] |  | 1.89 µM | 
CC(C)C[C@H](N)C(=O)N=S(N)(=O)c1cscc1C#N (stereo partly shown) [ANASIA-096] |  | 0.7 µM | 
CC(C)C[C@H](N)C(=O)N=S(N)(=O)c1cscc1C(N)=O (stereo partly drawn) [ANASIA-097, 4-(N′-(L-leucyl)sulfamidimidoyl)thiophene-3-carboxamide 2,2,2-trifluoroacetate] |  | 2.16 µM | 
Cc1cc([S@](N)(=O)=NC(=O)[C@@H](N)CC(C)C)cs1 [ANASIA-098-2] |  | 5.14 µM | 
CC(C)C[C@H](N)C(=O)N=[S@@](N)(=O)c1csc(Cl)c1 [ANASIA-099-2] |  | 0.511 µM | 
CC(C)C[C@H](N)C(=O)N=[S@@](N)(=O)c1csc2ccsc12 [ANASIA-100-2] |  | 0.945 µM | 
Cc1csc([S@](N)(=O)=NC(=O)[C@@H](N)CC(C)C)c1C [ANASIA-104-2] |  | 3.25 µM | 
C=Cc1ccsc1S(N)(=O)=NC(=O)[C@@H](N)CC(C)C (stereo partly drawn) [ANASIA-106, (2S)-2-amino-N-(amino(oxo)(3-vinylthiophen-2-yl)-λ6-sulfanylidene)-4-methylpentanamide hydrochloride] |  | 0.897 µM | 
CC(C)C[C@H](N)C(=O)N=[S@@](N)(=O)c1scc(Br)c1Br [ANASIA-107-2] |  | 1.29 µM | 
COc1ccsc1[S@](N)(=O)=NC(=O)[C@@H](N)CC(C)C [ANASIA-108-2] |  | 4.31 µM | 
CC(C)C[C@H](N)C(=O)N=[S@](N)(=O)c1sccc1C(C)C [ANASIA-110-1] | 0.425 µM |  | 
CC(C)C[C@H](N)C(=O)N=[S@@](N)(=O)c1sccc1C(C)C [ANASIA-110-2] |  | 6.24 µM | 
CC(C)C[C@H](N)C(=O)N=[S@](N)(=O)c1ccc(C(C)C)s1 [ANASIA-111-1] | 0.779 µM |  | 
CC(C)C[C@H](N)C(=O)N=[S@](N)(=O)c1cccc(Oc2ccccc2)c1 [ANASIA-114-1] | 0.0618 µM |  | 
CC(C)C[C@H](N)C(=O)N=[S@@](N)(=O)c1cccc(Oc2ccccc2)c1 [ANASIA-114-2] |  | 0.982 µM | 

SMILES | IC50 [1] | IC50 [1, 5] | further results
CCc1ccsc1[S@](N)(=O)=NC(=O)[C@@H](N)CC(C)C [ANASIA-119-2] |  | 4.65 µM | 
CC(C)C[C@H](N)C(=O)N=[S@@](N)(=O)c1sc(Cl)cc1Cl [ANASIA-120-2] |  | 7.6 µM | 
CC(C)C[C@H](N)C(=O)N=[S@@](N)(=O)c1cc(Cl)c(Cl)s1 [ANASIA-121-2] |  | 1.1 µM | 
Cc1c([S@](N)(=O)=NC(=O)[C@@H](N)CC(C)C)csc1Cl [ANASIA-122-2] |  | 1.93 µM | 
CC(C)C[C@H](N)C(=O)N=[S@@](N)(=O)c1cc(Cl)cs1 [ANASIA-124-2] |  | 4.8 µM | 
CC(C)C[C@H](N)C(=O)N=[S@@](N)(=O)c1csc(Cl)c1Cl [ANASIA-125-2] |  | 1.93 µM | 
CC(C)C[C@H](N)C(=O)N=[S@@](N)(=O)c1ccsc1C(F)F [ANASIA-126-2] |  | 1.72 µM | 
CC(C)C[C@H](N)C(=O)N=[S@](N)(=O)c1nc(C(F)F)cs1 [ANASIA-127-1] | 6.89 µM |  | 
CC(C)C[C@H](N)C(=O)N=[S@@](N)(=O)c1nc(C(F)F)cs1 [ANASIA-127-2] | 0.192 µM |  | 
Cc1nc([S@@](N)(=O)=NC(=O)[C@@H](N)CC(C)C)sc1C [ANASIA-128-1] | 2.61 µM |  | 
Cc1nc([S@](N)(=O)=NC(=O)[C@@H](N)CC(C)C)sc1C [ANASIA-128-2] |  | 3.44 µM | 
CC(C)C[C@H](N)C(=O)N=[S@](N)(=O)c1cscc1-c1ccccc1 [ANASIA-130-1] | 0.324 µM |  | 
CC(C)C[C@H](N)C(=O)N=[S@@](N)(=O)c1cscc1-c1ccccc1 [ANASIA-130-2] |  | 3.7 µM | 
CC(C)C[C@H](N)C(=O)N=[S@](N)(=O)c1nsc2ccccc12 [ANASIA-132-1] | 4.14 µM |  | 
CCc1csc([S@](N)(=O)=NC(=O)[C@@H](N)CC(C)C)c1 [ANASIA-133-2, (S)-2-amino-N—((R)-amino(4-ethylthiophen-2-yl)(oxo)-λ6-sulfanylidene)-4-methylpentanamide] | 6.37 µM |  | 
CC(C)C[C@H](N)C(=O)N=[S@](N)(=O)c1cc(Cl)sc1Cl [ANASIA-134-1] | 5.15 µM |  | 
CC(C)C[C@H](N)C(=O)N=[S@](N)(=O)c1csc(C#N)c1 [ANASIA-135-1] | 5.07 µM |  | 
CC(C)C[C@H](N)C(=O)N=[S@@](N)(=O)c1cc(C#N)cs1 [ANASIA-136-2] |  | 1.41 µM | 
Cc1ncc([S@@](N)(=O)=NC(=O)[C@@H](N)CC(C)C)s1 [ANASIA-137-1] | 2.67 µM |  | 
Cc1ncc([S@](N)(=O)=NC(=O)[C@@H](N)CC(C)C)s1 [ANASIA-137-2] |  | 8.89 µM | 
